Measured values reported in patent US8987195B2 (priority 2012, dated 2015).
Read-outs that look alike come from different tables or passages of the source.

Experiments:
HCV genotype 1b replicon = test: HCV replicon assay, genotype 1b replicon EC50; format: cell-based, Hepatitis C virus; settings: genotype 1b replicon, read-out: EC50 [gt-1b]
Method in brief: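 Stable neomycin phosphotransferase-encoding replicon cell lines, kept under G418 selection beforehand, were plated with a compound dilution series without G418 and incubated 24-48 hours. Replicon RNA was then quantified, or luciferase activity read. EC50 was calculated as percent of DMSO control by four-parameter fit.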

[1] = target: HCV NS3/4A protease genotype 1b (Hepatitis C virus genotype 1b, UniProt P26663); test: HCV NS3/4A protease time-resolved fluorescence (TRF) assay, Ki against genotype 1b; format: biochemical; settings: IC50 [gt-1b] (nM), NS3/4A genotype 1b, enzyme 0.2 nM
Method in brief: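 Time-resolved fluorescence readout of NS3/4A cleavage of 25 nM europium-labelled peptide over 2.5 h at room temperature, enzyme levels set for signal/background 10–30 (0.2, 0.4, 0.025 nM for 1b, A156T, 3a). Ki by IC50=Ki(1+[S]/KM).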

## CC1(S(=O)(=O)NC(=O)[C@@]23C[C@H]2/C=C\CCCCC[C@H](NC(=O)OC2CCCC2)C(=O)N2C[C@@]4(CCc5c(c(C6CC6)nc6ccccc56)O4)C[C@H]2C(=O)N3)CC1 [Example 104, cyclopentyl [(2R,6S,12Z,13aS,14aR,16aS)-5′-cyclopropyl-14a-{[(1-methylcyclopropyl)sulfonyl]carbamoyl}-5,16-dioxo-1,1′,2′,5,6,7,8,9,10,11,13a,14,14a,15,16,16a-hexadecahydrospiro[cyclopropa[e]pyrrolo[1,2-a][1,4]diazacyclopentadecine-2,3′-pyrano[2,3-c]quinolin]-6-yl]carbamate]
HCV genotype 1b replicon; Hepatitis C virus
  EC50: 1.39 nM
[1]
  IC50: 0.013 nM

## Cc1nc2ccccc2c2c1O[C@]1(CC2)C[C@H]2C(=O)N[C@]3(C(=O)NS(=O)(=O)C4(C)CC4)C[C@H]3/C=C\CCCCC[C@H](NC(=O)OC(C)C)C(=O)N2C1 [Example 105, propan-2-yl [(2R,6S,12Z,13aS,14aR,16aS)-5′-methyl-14a-{[(1-methylcyclopropyl)sulfonyl]carbamoyl}-5,16-dioxo-1,1′,2′,5,6,7,8,9,10,11,13a,14,14a,15,16,16a-hexadecahydrospiro[cyclopropa[e]pyrrolo[1,2-a][1,4]diazacyclopentadecine-2,3′-pyrano[2,3-c]quinolin]-6-yl]carbamate]
HCV genotype 1b replicon; Hepatitis C virus
  EC50: 1.42 nM
[1]
  IC50: 0.013 nM

## Cc1nc2ccccc2c2c1O[C@@]1(C[C@H]3C(=O)N[C@]4(C(=O)NS(=O)(=O)C5(C)CC5)C[C@H]4/C=C\CCCCC[C@H](NC(=O)OCC(C)C)C(=O)N3C1)CC2(F)F [Example 106, 2-methylpropyl [(2S,6S,12Z,13aS,14aR,16aS)-1′,1′-difluoro-5′-methyl-14a-{[(1-methylcyclopropyl)sulfonyl]carbamoyl}-5,16-dioxo-1,1′,2′,5,6,7,8,9,10,11,13a,14,14a,15,16,16a-hexadecahydrospiro[cyclopropa[e]pyrrolo[1,2-a][1,4]diazacyclopentadecine-2,3′-pyrano[2,3-c]quinolin]-6-yl]carbamate]
HCV genotype 1b replicon; Hepatitis C virus
  EC50: 3.21 nM
[1]
  IC50: 0.048 nM

## Cc1nc2c(F)cccc2c2c1O[C@]1(CC2)C[C@H]2C(=O)N[C@]3(C(=O)NS(=O)(=O)C4CC4)C[C@H]3/C=C\CCCCC[C@H](NC(=O)OC(C)(C)C)C(=O)N2C1 [Example 107, tert-butyl {(2R,6S,12Z,13aS,14aR,16aS)-14a-[(cyclopropylsulfonyl)carbamoyl]-7′-fluoro-5′-methyl-5,16-dioxo-1,1′,2′,5,6,7,8,9,10,11,13a,14,14a,15,16,16a-hexadecahydrospiro[cyclopropa[e]pyrrolo[1,2-a][1,4]diazacyclopentadecine-2,3′-pyrano[2,3-c]quinolin]-6-yl}carbamate]
HCV genotype 1b replicon; Hepatitis C virus
  EC50: 3.48 nM
[1]
  IC50: 0.014 nM

## Cc1ccc2nc(C)c3c(c2c1)CC[C@]1(C[C@H]2C(=O)N[C@]4(C(=O)NS(=O)(=O)C5(C)CC5)C[C@H]4/C=C\CCCCC[C@H](NC(=O)OCC(C)C)C(=O)N2C1)O3 [Example 108, 2-methylpropyl [(2R,6S,12Z,13aS,14aR,16aS)-5′,9′-dimethyl-14a-{[(1-methylcyclopropyl)sulfonyl]carbamoyl}-5,16-dioxo-1,1′,2′,5,6,7,8,9,10,11,13a,14,14a,15,16,16a-hexadecahydrospiro[cyclopropa[e]pyrrolo[1,2-a][1,4]diazacyclopentadecine-2,3′-pyrano[2,3-c]quinolin]-6-yl]carbamate]
HCV genotype 1b replicon; Hepatitis C virus
  EC50: 1.23 nM
[1]
  IC50: 0.007 nM

## Cc1ccc2nc(C)c3c(c2c1)CC[C@]1(C[C@H]2C(=O)N[C@]4(C(=O)NS(=O)(=O)C5(C)CC5)C[C@H]4/C=C\CCCCC[C@H](NC(=O)OC(C)C)C(=O)N2C1)O3 [Example 109, propan-2-yl [(2R,6S,12Z,13aS,14aR,16aS)-5′,9′-dimethyl-14a-{[(1-methylcyclopropyl)sulfonyl]carbamoyl}-5,16-dioxo-1,1′,2′,5,6,7,8,9,10,11,13a,14,14a,15,16,16a-hexadecahydrospiro[cyclopropa[e]pyrrolo[1,2-a][1,4]diazacyclopentadecine-2,3′-pyrano[2,3-c]quinolin]-6-yl]carbamate]
HCV genotype 1b replicon; Hepatitis C virus
  EC50: 0.944 nM
[1]
  IC50: 0.011 nM

## CC(C)COC(=O)N[C@H]1CCCCC/C=C\[C@@H]2C[C@@]2(C(=O)NS(=O)(=O)C2(C)CC2)NC(=O)[C@@H]2C[C@]3(CCc4c(cnc5ccccc45)O3)CN2C1=O [Example 110, 2-methylpropyl [(2R,6S,12Z,13aS,14aR,16aS)-14a-{[(1-methylcyclopropyl)sulfonyl]carbamoyl}-5,16-dioxo-1,1′,2′,5,6,7,8,9,10,11,13a,14,14a,15,16,16a-hexadecahydrospiro[cyclopropa[e]pyrrolo[1,2-a][1,4]diazacyclopentadecine-2,3′-pyrano[2,3-c]quinolin]-6-yl]carbamate]
HCV genotype 1b replicon; Hepatitis C virus
  EC50: 47.7 nM
[1]
  IC50: 0.806 nM

## CC1(OC(=O)N[C@H]2CCCCC/C=C\[C@@H]3C[C@@]3(C(=O)NS(=O)(=O)C3(C)CC3)NC(=O)[C@@H]3C[C@]4(CCc5c(c(C6CC6)nc6ccccc56)O4)CN3C2=O)CCC1 [Example 111, 1-methylcyclobutyl [(2R,6S,12Z,13aS,14aR,16aS)-5′-cyclopropyl-14a-{[(1-methylcyclopropyl)sulfonyl]carbamoyl}-5,16-dioxo-1,1′,2′,5,6,7,8,9,10,11,13a,14,14a,15,16,16a-hexadecahydrospiro[cyclopropa[e]pyrrolo[1,2-a][1,4]diazacyclopentadecine-2,3′-pyrano[2,3-c]quinolin]-6-yl]carbamate]
HCV genotype 1b replicon; Hepatitis C virus
  EC50: 0.685 nM
[1]
  IC50: 0.011 nM

## Cc1nc2ccccc2c2c1O[C@@]1(C[C@H]3C(=O)N[C@]4(C(=O)NS(=O)(=O)C5(C)CC5)C[C@H]4/C=C\CCCCC[C@H](NC(=O)OC4CC(F)(F)C4(F)F)C(=O)N3C1)CC2(F)F (stereo partly drawn) [Example 112, 2,2,3,3-tetrafluorocyclobutyl [(2S,6S,12Z,13aS,14aR,16aS)-1′,1′-difluoro-5′-methyl-14a-{[(1-methylcyclopropyl)sulfonyl]carbamoyl}-5,16-dioxo-1,1′,2′,5,6,7,8,9,10,11,13a,14,14a,15,16,16a-hexadecahydrospiro[cyclopropa[e]pyrrolo[1,2-a][1,4]diazacyclopentadecine-2,3′-pyrano[2,3-c]quinolin]-6-yl]carbamate]
HCV genotype 1b replicon; Hepatitis C virus
  EC50: 32 nM
[1]
  IC50: 0.226 nM

## Cc1nc2c(C(F)(F)F)cccc2c2c1O[C@]1(CC2)C[C@H]2C(=O)N[C@]3(C(=O)NS(=O)(=O)C4(C)CC4)C[C@H]3/C=C\CCCCC[C@H](NC(=O)OCC(C)C)C(=O)N2C1 [Example 113, 2-methylpropyl [(2R,6S,12Z,13aS,14aR,16aS)-5′-methyl-14a-{[(1-methylcyclopropyl)sulfonyl]carbamoyl}-5,16-dioxo-7′-(trifluoromethyl)-1,1′,2′,5,6,7,8,9,10,11,13a,14,14a,15,16,16a-hexadecahydrospiro[cyclopropa[e]pyrrolo[1,2-a][1,4]diazacyclopentadecine-2,3′-pyrano[2,3-c]quinolin]-6-yl]carbamate]
HCV genotype 1b replicon; Hepatitis C virus
  EC50: 3.95 nM
[1]
  IC50: 0.298 nM

## Cc1nc2c(C(F)(F)F)cccc2c2c1O[C@]1(CC2)C[C@H]2C(=O)N[C@]3(C(=O)NS(=O)(=O)C4(C)CC4)C[C@H]3/C=C\CCCCC[C@H](NC(=O)OC(C)C)C(=O)N2C1 [Example 114, propan-2-yl [(2R,6S,12Z,13aS,14aR,16aS)-5′-methyl-14a-{[(1-methylcyclopropyl)sulfonyl]carbamoyl}-5,16-dioxo-7′-(trifluoromethyl)-1,1′,2′,5,6,7,8,9,10,11,13a,14,14a,15,16,16a-hexadecahydrospiro[cyclopropa[e]pyrrolo[1,2-a][1,4]diazacyclopentadecine-2,3′-pyrano[2,3-c]quinolin]-6-yl]carbamate]
HCV genotype 1b replicon; Hepatitis C virus
  EC50: 3.53 nM
[1]
  IC50: 0.308 nM

## CCOC(=O)N[C@H]1CCCCC/C=C\[C@@H]2C[C@@]2(C(=O)NS(=O)(=O)C2(C)CC2)NC(=O)[C@@H]2C[C@]3(CCc4c(c(C)nc5ccccc45)O3)CN2C1=O [Example 115, ethyl [(2R,6S,12Z,13aS,14aR,16aS)-5′-methyl-14a-{[(1-methylcyclopropyl)sulfonyl]carbamoyl}-5,16-dioxo-1,1′,2′,5,6,7,8,9,10,11,13a,14,14a,15,16,16a-hexadecahydrospiro[cyclopropa[e]pyrrolo[1,2-a][1,4]diazacyclopentadecine-2,3′-pyrano[2,3-c]quinolin]-6-yl]carbamate]
HCV genotype 1b replicon; Hepatitis C virus
  EC50: 6.86 nM
[1]
  IC50: 0.017 nM

## Cc1nc2ccccc2c2c1O[C@]1(CC2)C[C@H]2C(=O)N[C@]3(C(=O)NS(=O)(=O)C4(C)CC4)C[C@H]3/C=C\CCCCC[C@H](NC(=O)OC3(C(C)C)CC3)C(=O)N2C1 [Example 116, 1-(propan-2-yl)cyclopropyl [(2R,6S,12Z,13aS,14aR,16aS)-5′-methyl-14a-{[(1-methylcyclopropyl)sulfonyl]carbamoyl}-5,16-dioxo-1,1′,2′,5,6,7,8,9,10,11,13a,14,14a,15,16,16a-hexadecahydrospiro[cyclopropa[e]pyrrolo[1,2-a][1,4]diazacyclopentadecine-2,3′-pyrano[2,3-c]quinolin]-6-yl]carbamate]
HCV genotype 1b replicon; Hepatitis C virus
  EC50: 0.312 nM
[1]
  IC50: 0.008 nM

## Cc1nc2ccccc2c2c1O[C@]1(CC2O)C[C@H]2C(=O)N[C@]3(C(=O)NS(=O)(=O)C4(C)CC4)C[C@H]3/C=C\CCCCC[C@H](NC(=O)OC(C)(C)C)C(=O)N2C1 (stereo partly drawn) [Example 118, tert-butyl [(2S,6S,12Z,13aS,14aR,16aS)-1′-hydroxy-5′-methyl-14a-{[(1-methylcyclopropyl)sulfonyl]carbamoyl}-5,16-dioxo-1,1′,2′,5,6,7,8,9,10,11,13a,14,14a,15,16,16a-hexadecahydrospiro[cyclopropa[e]pyrrolo[1,2-a][1,4]diazacyclopentadecine-2,3′-pyrano[2,3-c]quinolin]-6-yl]carbamate]
HCV genotype 1b replicon
  EC50: 47.3 nM
[1]
  IC50: 0.027 nM
